In the assay the target is T1, CCR2 (Mus musculus, UniProt P51683).
T1 construct: membranes from Ba/F3 cells transfected with mouse CCR2
In words: […]-rhCCL2 radioligand displacement, SPA, on membranes in mouse plasma. It is filed as binding.

For orientation: IC50 means the midpoint of a concentration-inhibition curve. A high value points to a need for much substance.

T1 sequence (P51683 whole entry): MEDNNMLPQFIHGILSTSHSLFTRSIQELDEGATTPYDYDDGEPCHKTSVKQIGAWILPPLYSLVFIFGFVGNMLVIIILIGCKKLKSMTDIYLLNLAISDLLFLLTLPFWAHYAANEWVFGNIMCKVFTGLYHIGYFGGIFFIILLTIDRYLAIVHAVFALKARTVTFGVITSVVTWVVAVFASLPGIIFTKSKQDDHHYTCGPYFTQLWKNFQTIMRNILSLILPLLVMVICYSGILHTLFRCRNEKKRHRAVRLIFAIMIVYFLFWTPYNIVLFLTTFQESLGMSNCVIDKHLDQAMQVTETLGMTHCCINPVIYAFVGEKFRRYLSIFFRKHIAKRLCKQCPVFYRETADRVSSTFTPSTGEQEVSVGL

Regarding `CO[C@@H]1COCC[C@@H]1N[C@@H]1CC[C@@](C(=O)N2CCc3ncc(C(F)(F)F)cc3C2)(C(C)C)C1` [MK0812], the IC50 stood at 19 nM.

The values above are taken from paper PMC2777898, “CCR2 and CXCR4 regulate peripheral blood monocyte pharmacodynamics and link to efficacy in experimental autoimmune encephalomyelitis” (Journal of Inflammation (London, England), 2009).
